Reference: patent US20240409585A1, “MACROCYCLIC IMMUNOMODULATORS” (priority 2021, published 2024)
Numbered stars: 1 amine (or outer) side, 2 acyl side, 3 side chain; on linkers, the order of the positions; unused ones are H or OH. Bridge positions count the residues as written; N and C are the ends. Square brackets hold non-standard residues; d marks the D form. Peptide text beside a SMILES is read from it. * marks the point of attachment. ξ: configuration not given here. Phe(4-COOH) = N[C@@H](Cc1ccc(C(=O)O)cc1)C(=O)O; X28 = O=C([C@H](Cc1ccc2ccncc2c1)N[*:1])[*:2]; Bip = N[C@@H](Cc1ccc(-c2ccccc2)cc1)C(=O)O; Phe(3-Me) = Cc1cccc(C[C@H](N)C(=O)O)c1; Val(3-OH) = CC(C)(O)[C@H](N)C(=O)O; 4Pal = N[C@@H](Cc1ccncc1)C(=O)O; Cha = N[C@@H](CC1CCCCC1)C(=O)O; Cit = NC(=O)NCCC[C@H](N)C(=O)O; Ile(3ξ) = CCC(C)[C@H](N)C(=O)O; Thr(3ξ) = CC(O)[C@H](N)C(=O)O; Ahp(2) = CCCCC[C@H](N)C(=O)O; Carboxymethyl = O=C(O)C*; NMeA = CN[C@@H](C)C(=O)O; Orn = NCCC[C@H](N)C(=O)O; Dab = NCC[C@H](N)C(=O)O; Ac3c = NC1(C(=O)O)CC1; ξC = NC(CS)C(=O)O

Target: T1, PE-labeled human PD-L1-Ig binding to Jurkat cell line over-expressing human PD-1 (Jurkat-PD-1) (Homo sapiens, UniProt Q15116)
T1 construct: expressed in transfected cells; host or cells: Jurkat
T1 sequence (Q15116 25-288): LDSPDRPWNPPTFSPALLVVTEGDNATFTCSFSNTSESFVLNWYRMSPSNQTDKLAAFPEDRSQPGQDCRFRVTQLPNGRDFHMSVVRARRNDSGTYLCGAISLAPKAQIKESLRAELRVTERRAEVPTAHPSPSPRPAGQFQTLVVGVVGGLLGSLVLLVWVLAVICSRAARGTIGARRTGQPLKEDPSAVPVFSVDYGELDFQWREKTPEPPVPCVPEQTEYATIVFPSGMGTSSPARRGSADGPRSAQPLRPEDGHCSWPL
Experiment: Jurkat-PD-1 Cell Binding High-Content Screening Assay (CBA): Method 1
Conditions: Jurkat-hPD-1 cells, PE-labeled PD-L1-Ig 20 nM final; read-out: Jurkat HPDL1 PD1 IC50 (uM) (Method 1)

Row | Compound | IC50
1 | Cc1cccc(C[C@@H]2NC(=O)[C@H](CC(=O)O)NC(=O)[C@H](Cc3ccc(C(=O)O)cc3)NC(=O)[C@H](Cc3ccncc3)NC(=O)CSC[C@@H](C(=O)N[C@@H](CO)C(N)=O)NC(=O)[C@H](CCC(=O)O)NC(=O)[C@H](C(C)(C)O)NC(=O)[C@H](CC3CCCCC3)NC(=O)[C@H](CCN)NC(=O)[C@@H](CC(C)C)NC(=O)[C@H](C)N(C)C(=O)[C@H](Cc3ccc(OCC(=O)O)cc3)NC(=O)[C@H](Cc3ccc(-c4ccccc4)cc3)NC(=O)[C@H](Cc3ccc(C(=O)O)cc3)NC2=O)c1 [Compound 2195] ({CH2CO}-[4Pal][Phe(4-COOH)]D[Phe(3-Me)][Phe(4-COOH)][Bip]Y(Carboxymethyl)[NMeA][dL][Dab][Cha][Val(3-OH)]ECS-NH2; thioether N-14) | 0.08 µM
2 | Cc1cccc(C[C@@H]2NC(=O)[C@H](CC(=O)O)NC(=O)[C@H](Cc3ccc(OCC(=O)O)cc3)NC(=O)[C@H]([C@@H](C)O)NC(=O)CSC[C@@H](C(=O)NC3(C(N)=O)CC3)NC(=O)[C@H](CO)NC(=O)[C@H](C(C)C)NC(=O)[C@H](CC3CCCCC3)NC(=O)[C@H](CCN)NC(=O)[C@@H](CC(C)C)NC(=O)[C@H](C)N(C)C(=O)[C@H](Cc3ccc(OCC(=O)O)cc3)NC(=O)[C@H](Cc3ccc(-c4ccccc4)cc3)NC(=O)[C@H](Cc3ccc(OCC(=O)O)cc3)NC2=O)c1 [Compound 1862] ({CH2CO}-TY(Carboxymethyl)D[Phe(3-Me)]Y(Carboxymethyl)[Bip]Y(Carboxymethyl)[NMeA][dL][Dab][Cha]VSC[Ac3c]-NH2; thioether N-14) | 0.04 µM
3 | CCC(C)[C@@H]1NC(=O)[C@H](Cc2ccc(-c3ccccc3)cc2)NC(=O)[C@H](C(C)C)NC(=O)[C@H](Cc2c[nH]c3ccccc23)NC(=O)[C@H](CC(=O)O)NC(=O)[C@H](Cc2ccc(O)cc2)NC(=O)[C@H](Cc2ccc3ccncc3c2)NC(=O)CSCC(C(=O)NCC(=O)O)NC(=O)[C@H](C(C)O)NC(=O)[C@H](C(C)C)NC(=O)[C@H](CC2CCCCC2)NC(=O)[C@H](CCN)NC(=O)[C@@H](CC(C)C)NC(=O)[C@H](C)N(C)C1=O (stereo partly drawn) [Compound 2219] ({CH2CO}-[X28]YDWV[Bip][Ile(3ξ)][NMeA][dL][Dab][Cha]V[Thr(3ξ)][ξC]G-OH; thioether N-14) | 0.02 µM
4 | CC(C)C[C@@H]1NC(=O)[C@H](CCCCN)NC(=O)[C@@H](CC(C)C)NC(=O)[C@H](C)N(C)C(=O)[C@H](C(C)C)NC(=O)[C@H](Cc2ccc(-c3ccccc3)cc2)NC(=O)[C@H](C(C)C)NC(=O)[C@H](Cc2c[nH]c3ccccc23)NC(=O)[C@H](CC(=O)O)NC(=O)[C@H](Cc2ccc(O)cc2)NC(=O)[C@H](CC(N)=O)NC(=O)CSC[C@@H](C(=O)N[C@@H](C)C(N)=O)NC(=O)[C@H]([C@@H](C)O)NC(=O)[C@H](C(C)C)NC1=O [Compound 1299] ({CH2CO}-NYDWV[Bip]V[NMeA][dL]KLVTCA-NH2; thioether N-14) | 0.02 µM
5 | CC(C)C[C@@H]1NC(=O)[C@H](Cc2c[nH]c3ccccc23)NC(=O)[C@H](CC(=O)O)NC(=O)[C@H](Cc2ccncc2)NC(=O)[C@H](Cc2ccc(OCC(=O)O)cc2)NC(=O)CSC[C@@H](C(=O)N[C@@H](CC(N)=O)C(N)=O)NC(=O)[C@H](CO)NC(=O)[C@H](C(C)C)NC(=O)[C@H](CC2CCCCC2)NC(=O)[C@H](CCN)NC(=O)[C@@H](CC(C)C)NC(=O)[C@H](C)N(C)C(=O)[C@H](C(C)C)NC(=O)[C@H](Cc2ccc(-c3ccccc3)cc2)NC1=O [Compound 1901] ({CH2CO}-Y(Carboxymethyl)[4Pal]DWL[Bip]V[NMeA][dL][Dab][Cha]VSCN-NH2; thioether N-14) | 0.01 µM
6 | CCCCC[C@@H]1NC(=O)[C@H](Cc2ccc(-c3ccccc3)cc2)NC(=O)[C@H](C(C)C)NC(=O)[C@H](Cc2c[nH]c3ccccc23)NC(=O)[C@H](CC(=O)O)NC(=O)[C@H](Cc2ccc(O)cc2)NC(=O)[C@H](CC(N)=O)NC(=O)CSC[C@@H](C(=O)N[C@@H](C)C(N)=O)NC(=O)[C@H](C(C)O)NC(=O)[C@H](C(C)C)NC(=O)[C@H](CC(C)C)NC(=O)[C@H](CCN)NC(=O)[C@@H](CC(C)C)NC(=O)[C@H](C)N(C)C1=O (stereo partly drawn) [Compound 2083] ({CH2CO}-NYDWV[Bip][Ahp(2)][NMeA][dL][Dab]LV[Thr(3ξ)]CA-NH2; thioether N-14) | 0.06 µM
7 | CC(C)C[C@@H]1NC(=O)[C@H](Cc2c[nH]c3ccccc23)NC(=O)[C@H](CC(=O)O)NC(=O)[C@H](Cc2ccc(OCC(=O)O)cc2)NC(=O)[C@H](Cc2ccccc2)NC(=O)CSC[C@@H](C(=O)N[C@@H](C)C(N)=O)NC(=O)[C@H](CO)NC(=O)[C@H](C(C)C)NC(=O)[C@H](CC(C)C)NC(=O)[C@H](CC(=O)O)NC(=O)[C@@H](CC(C)C)NC(=O)[C@H](C)N(C)C(=O)[C@H](C(C)C)NC(=O)[C@H](Cc2ccc(-c3ccccc3)cc2)NC1=O [Compound 2027] ({CH2CO}-FY(Carboxymethyl)DWL[Bip]V[NMeA][dL]DLVSCA-NH2; thioether N-14) | 0.02 µM
8 | Cc1cccc(C[C@@H]2NC(=O)[C@H](CC(=O)O)NC(=O)[C@H](Cc3ccc(O)cc3)NC(=O)[C@H](CC(N)=O)NC(=O)CSC[C@@H](C(=O)N[C@@H](CCN)C(N)=O)NC(=O)[C@H]([C@@H](C)O)NC(=O)[C@H](C(C)(C)O)NC(=O)[C@H](CC3CCCCC3)NC(=O)[C@H](CCN)NC(=O)[C@@H](CC(C)C)NC(=O)[C@H](C)N(C)C(=O)[C@H](CCCNC(N)=O)NC(=O)[C@H](Cc3ccc(-c4ccccc4)cc3)NC(=O)[C@H](C(C)C)NC2=O)c1 [Compound 1701] ({CH2CO}-NYD[Phe(3-Me)]V[Bip][Cit][NMeA][dL][Dab][Cha][Val(3-OH)]TC[Dab]-NH2; thioether N-14) | 0.01 µM
9 | CC[C@H](C)[C@@H]1NC(=O)[C@H](Cc2ccc(-c3ccccc3)cc2)NC(=O)[C@H](C(C)C)NC(=O)[C@H](Cc2cccc(C)c2)NC(=O)[C@H](CC(=O)O)NC(=O)[C@H](Cc2ccc(O)cc2)NC(=O)[C@H](CC(N)=O)NC(=O)CSC[C@@H](C(=O)N[C@H](C)C(N)=O)NC(=O)[C@H](CCC(=O)O)NC(=O)[C@H](C(C)(C)O)NC(=O)[C@H](CC2CCCCC2)NC(=O)[C@H](CCN)NC(=O)[C@@H](CC(C)C)NC(=O)[C@H](C)N(C)C1=O [Compound 1696] ({CH2CO}-NYD[Phe(3-Me)]V[Bip]I[NMeA][dL][Dab][Cha][Val(3-OH)]EC[dA]-NH2; thioether N-14) | 0.01 µM
10 | CC(C)C[C@@H]1NC(=O)[C@H](Cc2c[nH]c3ccccc23)NC(=O)[C@H](CC(=O)O)NC(=O)[C@H](Cc2ccc(O)cc2)NC(=O)[C@H](Cc2ccccc2)NC(=O)CSC[C@@H](C(=O)N[C@@H](C)C(N)=O)NC(=O)[C@H](CO)NC(=O)[C@H](CCCN)NC(=O)[C@H](CC(C)C)NC(=O)[C@H](CC(N)=O)NC(=O)[C@@H](CC(C)C)NC(=O)[C@H](C)N(C)C(=O)[C@H](C(C)C)NC(=O)[C@H](Cc2ccc(-c3ccccc3)cc2)NC1=O [Compound 1537] ({CH2CO}-FYDWL[Bip]V[NMeA][dL]NL[Orn]SCA-NH2; thioether N-14) | 0.02 µM
11 | CC(C)C[C@@H]1NC(=O)[C@H](CCN)NC(=O)[C@@H](CC(C)C)NC(=O)[C@H](C)N(C)C(=O)[C@H](C(C)C)NC(=O)[C@H](Cc2ccc(-c3ccccc3)cc2)NC(=O)[C@H](C(C)C)NC(=O)[C@H](Cc2c[nH]c3ccccc23)NC(=O)[C@H](CC(=O)O)NC(=O)[C@H](Cc2ccc(C(=O)O)cc2)NC(=O)[C@H](CC(N)=O)NC(=O)CSC[C@@H](C(=O)N[C@@H](C)C(N)=O)NC(=O)[C@H]([C@@H](C)O)NC(=O)[C@H](C(C)C)NC1=O [Compound 1378] ({CH2CO}-N[Phe(4-COOH)]DWV[Bip]V[NMeA][dL][Dab]LVTCA-NH2; thioether N-14) | 0.01 µM
